Measurements: US20240159780A1, “PREDICTION OF AMOUNT OF IN VIVO DOPAMINE ETC., AND APPLICATION THEREOF” (Sumitomo Pharma Co., Ltd., priority 2021, published 2024)
Entries after “also recorded” stand apart in the source; their conditions may differ.

Tests used:
[1] = system: MPTP-induced PD-LID model rhesus monkeys; assay: Number of blinks (eye tracking) after L-DOPA in MPTP-induced PD-LID model rhesus monkeys; assay type: in vivo, rhesus monkey
[2] = system: MPTP-induced PD-LID model rhesus monkeys; assay: Dyskinesia score and generalized dyskinesia score in MPTP-induced PD-LID model rhesus monkeys; assay type: in vivo, rhesus monkey
PD-LID model rats = assay: Striatal dopamine release by microdialysis in PD-LID model rats; assay type: in vivo, rat; conditions: levodopa i.p.
Experimental: As a representative experimental model for Parkinson's disease, a rat striatal dopaminergic neuron destruction model is known in which 6-hydroxydopamine (hereinafter sometimes referred to as “6-OHDA”) is locally administered to one side of the brain (6-OHDA unilateral treated rat (6-OHDA injured rat)). Male Wistar rats (12 weeks old, Japan SLC, Inc.) were used to prepare model animals. Desipramine hydrochloride (25 mg/kg; Wako Pure Chemical Industries, Ltd.) was intraperitoneally administered, and 30 minutes after the administration, inhalation anesthesia with isoflurane was performed using a general anesthesia machine for experimental animals. Under isoflurane anesthesia, the rat was fixed in a stereotaxic apparatus, the skin of the head was incised with a surgical scalpel to expose the cranial bone, and the coordinate of bregma, which is the starting point (AP: 0, ML: 0, DV: 0), was confirmed, and the coordinate of the right medial forebrain bundle (AP: −4.4 mm, ML: 1.5 mm, DV: 7.8 mm from bregma) was measured. […]
In order to measure striatal dopamine release, guide cannula implantation into the striatum of PD-LID model rats and chromatography were performed by a method described in a reference (Pharmacol Res Perspect. 2015 June; 3(3): e00142.). […] Using an HPLC-ECD system (EiCOM Co., Ltd.), the amount of dopamine in the collected dialysate was measured. […]

[3] = L-DOPA 22 mg/kg with Benserazide, oral

Row | time after administration at which the dyskinesia score increased [2, 3] | time after administration from which the score of generalized dyskinesia declined [2, 3] | time after administration from which the score of generalized dyskinesia increased [2, 3] [min] | time after administration of the peak dyskinesia score [2, 3] [min] | time after administration of the peak score of generalized dyskinesia [2, 3] | decay of the dyskinesia score ([2]; L-DOPA 22 mg/kg with Benserazide, oral, measured for 180 minutes) | Compound | total number of blinks compared to vehicle ([1]; 30 to 120 minutes after administration (60 to 150 minutes after start of measurement), one individual) | time after administration from which the number of blinks increased ([1]; L-DOPA 22 mg/kg with Benserazide 1/4 weight, oral, blinks tallied every 3 minutes) | time of peak of number of blinks with an intermediate duration (0.16≤T<0.18) ([1]; after oral L-DOPA 22 mg/kg, rapid decrease, then gradual increase) | rapid changes and temporal decreases in the dopamine amount in the synaptic cleft in the striatum (PD-LID model rats) | dyskinesia score ([2]; tandospirone ointment transdermal 19 hours prior to testing, with L-DOPA, vs non-tandospirone administration)
1 | about 20 minutes | around 150 minutes | 60 | 60 | around 90 minutes | did not decay until 180 minutes | N[C@@H](Cc1ccc(O)c(O)c1)C(=O)O [L-DOPA, (S)-2-amino-3-(3,4-dihydroxyphenyl) propanoic acid] | tended to increase; also recorded: clear tendency to increase | about 30 minutes | around 30 minutes | – | –
2 | – | – | – | – | – | – | O=C1[C@@H]2[C@H]3CC[C@H](C3)[C@@H]2C(=O)N1CCCCN1CCN(c2ncccn2)CC1 [tandospirone] | – | – | – | suppresses | decrease
